tested on: MCH receptors; assay: MCH receptor activity class (method not given); settings: class by percent of control at 10^−7 M or IC50

SMILES | class
Cc1cc(C(=O)N[C@H]2CC[C@@H](Nc3nc(C)c(C)c(N(C)C)n3)CC2)ccc1F [compound 2854, N-(cis-4-{[4-(dimethylamino)-5,6-dimethylpyrimidin-2-yl]amino}cyclohexyl)-4-fluoro-3-methylbenzamide] | 1 (Class 1: The value of percent of control at 10^−7 M was less than 40% or the value of IC50 was less than 50 nM.)
CCc1cccc(C(=O)N[C@H]2CC[C@@H](Nc3nc(C)c(C)c(N(C)C)n3)CC2)c1 [compound 2855, N-(cis-4-{[4-(dimethylamino)-5,6-dimethylpyrimidin-2-yl]amino}cyclohexyl)-3-ethylbenzamide] | 2 (Class 2: The value of percent of control at 10^−7 M was from 40% to 60% or the value of IC′50 was from 50 nM to 200 nM.)
Cc1nc(N[C@H]2CC[C@@H](NC(=O)c3cccc(OC(F)(F)F)c3)CC2)nc(N(C)C)c1C [compound 2856] | 1 (Class 1: The value of percent of control at 10^−7 M was less than 40% or the value of IC50 was less than 50 nM.)
Cc1nc(N[C@H]2CC[C@@H](NC(=O)c3cncc(Br)c3)CC2)nc(N(C)C)c1C [compound 2857, 5-bromo-N-(cis-4-{[4-(dimethylamino)-5,6-dimethylpyrimidin-2-yl]amino}cyclohexyl)nicotinamide] | 1 (Class 1: The value of percent of control at 10^−7 M was less than 40% or the value of IC50 was less than 50 nM.)
Cc1ccc(C(=O)N[C@H]2CC[C@@H](Nc3nc(C)c(C)c(N(C)C)n3)CC2)s1 [compound 2858] | 1 (Class 1: The value of percent of control at 10^−7 M was less than 40% or the value of IC50 was less than 50 nM.)
Cc1nc(N[C@H]2CC[C@@H](NC(=O)c3ccc(C(F)(F)F)nc3)CC2)nc(N(C)C)c1C [compound 2859] | 2 (Class 2: The value of percent of control at 10^−7 M was from 40% to 60% or the value of IC′50 was from 50 nM to 200 nM.)
CCOc1cc(OCC)cc(C(=O)N[C@H]2CC[C@@H](Nc3nc(C)c(C)c(N(C)C)n3)CC2)c1 [compound 2860] | 1 (Class 1: The value of percent of control at 10^−7 M was less than 40% or the value of IC50 was less than 50 nM.)
CCOc1cccc(C(=O)N[C@H]2CC[C@@H](Nc3nc(C)c(C)c(N(C)C)n3)CC2)c1 [compound 2861] | 1 (Class 1: The value of percent of control at 10^−7 M was less than 40% or the value of IC50 was less than 50 nM.)
Cc1nc(N[C@H]2CC[C@@H](NC(=O)c3cccc(OC(C)C)c3)CC2)nc(N(C)C)c1C [compound 2862] | 1 (Class 1: The value of percent of control at 10^−7 M was less than 40% or the value of IC50 was less than 50 nM.)
Cc1nc(N[C@H]2CC[C@@H](NC(=O)c3cccc(O)n3)CC2)nc(N(C)C)c1C [compound 2863] | 3 (Class 3 The value of percent of control at 10^−7 M was more than 60% or the value of IC50 was more than 200 nM.)
Cc1nc(N[C@H]2CC[C@@H](NC(=O)c3ccc(F)c(F)c3)CC2)nc(N(C)C)c1C [compound 2864] | 1 (Class 1: The value of percent of control at 10^−7 M was less than 40% or the value of IC50 was less than 50 nM.)
Cc1nc(N[C@H]2CC[C@@H](NCc3cccc(OC(F)(F)F)c3)CC2)nc(N(C)C)c1C [compound 2865] | 3 (Class 3 The value of percent of control at 10^−7 M was more than 60% or the value of IC50 was more than 200 nM.)
Cc1nc(N[C@H]2CC[C@@H](NCc3ccc(F)c(F)c3)CC2)nc(N(C)C)c1C [compound 2866] | 2 (Class 2: The value of percent of control at 10^−7 M was from 40% to 60% or the value of IC′50 was from 50 nM to 200 nM.)
CCOc1ccccc1NC(=O)N[C@H]1CC[C@@H](Nc2nc(C)c(C)c(N(C)C)n2)CC1 [compound 2868] | 1 (Class 1: The value of percent of control at 10^−7 M was less than 40% or the value of IC50 was less than 50 nM.)
Cc1nc(N[C@H]2CC[C@@H](NC(=O)Nc3ccc(OCc4ccccc4)cc3)CC2)nc(N(C)C)c1C [compound 2869] | 3 (Class 3 The value of percent of control at 10^−7 M was more than 60% or the value of IC50 was more than 200 nM.)
Cc1cnc(N[C@H]2CC[C@@H](NC(=O)C3(c4ccc(Cl)cc4)CC3)CC2)nc1N(C)C [compound 2870] | 1 (Class 1: The value of percent of control at 10^−7 M was less than 40% or the value of IC50 was less than 50 nM.)

SMILES | class
Cc1cnc(N[C@H]2CC[C@@H](NC(=O)C3(c4ccc(Cl)cc4Cl)CC3)CC2)nc1N(C)C [compound 2871] | 1 (Class 1: The value of percent of control at 10^−7 M was less than 40% or the value of IC50 was less than 50 nM.)
Cc1cnc(N[C@H]2CC[C@@H](NC(=O)Cc3ccc(Cl)cc3)CC2)nc1N(C)C [compound 2872, 2-(4-chlorophenyl)-N-(cis-4-{[4-(dimethylamino)-5-methylpyrimidin-2-yl]amino}cyclohexyl)acetamide] | 1 (Class 1: The value of percent of control at 10^−7 M was less than 40% or the value of IC50 was less than 50 nM.)
Cc1ccc(C2(C(=O)N[C@H]3CC[C@@H](Nc4ncc(C)c(N(C)C)n4)CC3)CC2)cc1 [compound 2873] | 1 (Class 1: The value of percent of control at 10^−7 M was less than 40% or the value of IC50 was less than 50 nM.)
COc1ccc(C2(C(=O)N[C@H]3CC[C@@H](Nc4ncc(C)c(N(C)C)n4)CC3)CC2)cc1 [compound 2875] | 1 (Class 1: The value of percent of control at 10^−7 M was less than 40% or the value of IC50 was less than 50 nM.)
COc1cccc(OCC(=O)N[C@H]2CC[C@@H](Nc3ncc(C)c(N(C)C)n3)CC2)c1 [compound 2877, N-(cis-4-{[4-(dimethylamino)-5-methylpyrimidin-2-yl]amino}cyclohexyl)-2-(3-methoxyphenoxy)acetamide] | 1 (Class 1: The value of percent of control at 10^−7 M was less than 40% or the value of IC50 was less than 50 nM.)
Cc1cnc(N[C@H]2CC[C@@H](NC(=O)COc3cccc(C(F)(F)F)c3)CC2)nc1N(C)C [compound 2878, N-(cis-4-{[4-(dimethylamino)-5-methylpyrimidin-2-yl]amino}cyclohexyl)-2-[3-(trifluoromethyl)phenoxy]acetamide] | 1 (Class 1: The value of percent of control at 10^−7 M was less than 40% or the value of IC50 was less than 50 nM.)
Cc1cnc(N[C@H]2CC[C@@H](NC(=O)COc3cccc(Cl)c3)CC2)nc1N(C)C [compound 2879, 2-(3-chlorophenoxy)-N-(cis-4-{[4-(dimethylamino)-5-methylpyrimidin-2-yl]amino}cyclohexyl)acetamide] | 1 (Class 1: The value of percent of control at 10^−7 M was less than 40% or the value of IC50 was less than 50 nM.)
Cc1cccc(Oc2ncccc2C(=O)N[C@H]2CC[C@@H](Nc3ncc(C)c(N(C)C)n3)CC2)c1 [compound 2885, N-(cis-4-{[4-(dimethylamino)-5-methylpyrimidin-2-yl]amino}cyclohexyl)-2-(3-methylphenoxy)nicotinamide] | 1 (Class 1: The value of percent of control at 10^−7 M was less than 40% or the value of IC50 was less than 50 nM.)
Cc1cnc(N[C@H]2CC[C@@H](NC(=O)c3cccnc3Oc3cccc(F)c3)CC2)nc1N(C)C [compound 2886, N-(cis-4-{[4-(dimethylamino)-5-methylpyrimidin-2-yl]amino}cyclohexyl)-2-(3-fluorophenoxy)nicotinamide] | 1 (Class 1: The value of percent of control at 10^−7 M was less than 40% or the value of IC50 was less than 50 nM.)
COc1cccc(Oc2ncccc2C(=O)N[C@H]2CC[C@@H](Nc3ncc(C)c(N(C)C)n3)CC2)c1 [compound 2887, N-(cis-4-{[4-(dimethylamino)-5-methylpyrimidin-2-yl]amino}cyclohexyl)-2-(3-methoxyphenoxy)nicotinamide] | 1 (Class 1: The value of percent of control at 10^−7 M was less than 40% or the value of IC50 was less than 50 nM.)
COc1ccc(Oc2ncccc2C(=O)N[C@H]2CC[C@@H](Nc3ncc(C)c(N(C)C)n3)CC2)cc1 [compound 2888, N-(cis-4-{[4-(dimethylamino)-5-methylpyrimidin-2-yl]amino}cyclohexyl)-2-(4-methoxyphenoxy)nicotinamide] | 1 (Class 1: The value of percent of control at 10^−7 M was less than 40% or the value of IC50 was less than 50 nM.)
Cc1cnc(N[C@H]2CC[C@@H](NC(=O)c3cccnc3Oc3ccc(I)cc3)CC2)nc1N(C)C [compound 2889, N-(cis-4-{[4-(dimethylamino)-5-methylpyrimidin-2-yl]amino}cyclohexyl)-2-(4-iodophenoxy)nicotinamide] | 1 (Class 1: The value of percent of control at 10^−7 M was less than 40% or the value of IC50 was less than 50 nM.)
COc1ccccc1Oc1ncccc1C(=O)N[C@H]1CC[C@@H](Nc2ncc(C)c(N(C)C)n2)CC1 [compound 2890, N-(cis-4-{[4-(dimethylamino)-5-methylpyrimidin-2-yl]amino}cyclohexyl)-2-(2-methoxyphenoxy)nicotinamide] | 1 (Class 1: The value of percent of control at 10^−7 M was less than 40% or the value of IC50 was less than 50 nM.)
Cc1cnc(N[C@H]2CC[C@@H](NC(=O)c3cccnc3Oc3ccccc3F)CC2)nc1N(C)C [compound 2891, N-(cis-4-{[4-(dimethylamino)-5-methylpyrimidin-2-yl]amino}cyclohexyl)-2-(2-fluorophenoxy)nicotinamide] | 1 (Class 1: The value of percent of control at 10^−7 M was less than 40% or the value of IC50 was less than 50 nM.)
Cc1cnc(N[C@H]2CC[C@@H](NC(=O)c3cccnc3Oc3ccccc3Cl)CC2)nc1N(C)C [compound 2892, 2-(2-chlorophenoxy)-N-(cis-4-{[4-(dimethylamino)-5-methylpyrimidin-2-yl]amino}cyclohexyl)nicotinamide] | 1 (Class 1: The value of percent of control at 10^−7 M was less than 40% or the value of IC50 was less than 50 nM.)
Cc1cnc(N[C@H]2CC[C@@H](NC(=O)c3cccnc3Oc3cccc(Cl)c3)CC2)nc1N(C)C [compound 2893, 2-(3-chlorophenoxy)-N-(cis-4-{[4-(dimethylamino)-5-methylpyrimidin-2-yl]amino}cyclohexyl)nicotinamide] | 1 (Class 1: The value of percent of control at 10^−7 M was less than 40% or the value of IC50 was less than 50 nM.)

Source: patent publication US20050197350A1, “Novel quinoline, tetrahydroquinazoline, and pyrimidine derivatives and methods of treatment related to the use thereof” (TAISHO PHARMACEUTICAL CO., LTD., priority 2003, published 2005)
